# Experimental data as given in patent US20260055104A1, “CRYSTAL FORM OF HETEROARYL DERIVATIVE PARP INHIBITOR AND USE THEREOF” (priority 2022, published 2026).
# What was measured:
# [1] = system: Human breast cancer cells MDA-MB-436; experiment: MDA-MB-436 cell activity test (CellTiter-Glo); format: cell-based; settings: 168 h, MDA-MB-436, 7 days incubation
# Experimental: On day 1, the cells in the exponential growth phase were collected, and the cell suspension was adjusted to 4000 cells/135 μL with the culture medium. 135 μL of the cell suspension was added to each well of a 96-well cell culture plate and incubated overnight. On day 2, compounds at different concentrations were added, and the plate was placed in the incubator and incubated for 7 days. After the incubation was completed, according to operation instructions for a CellTiter-Glo kit (Promega, G7573), 75 μL of CTG solution, which had already been pre-melted and equilibrated to room temperature, was added to each well, and the mixture was uniformly mixed for 2 min using a microplate shaker. The plate was placed at room temperature for 10 min, and then […] signal values were measured using an Envision2104 plate reader (PerkinElmer). […] The IC50 value was calculated using GraphPad Prism software.
# [2] = system: MDA-MB-436 subcutaneous transplanted tumor; experiment: Mouse MDA-MB-436 subcutaneous in vivo transplanted tumor model; parameters: species or system BALB/c nude mice
# Experimental: Human breast cancer cells MDA-MB-436 were placed in Leibovitz's L-15 medium (supplemented with 10 μg/mL insulin, 16 μg/mL glutathione, 10% fetal bovine serum and 1% penicillin-streptomycin solution) and cultured at 37° C. Conventional digestion treatment with trypsin was performed twice a week for passage. When the cell saturation was 80%-90%, and the number reached the requirement, the cells were harvested, counted, and inoculated. BALB/c nude mice (from Beijing Vital River Laboratory Animal Technology Co., Ltd.) were subcutaneously inoculated with 0.2 mL (10×10^6) of MDA-MB-436 cells (plus matrigel, with the volume ratio of 1:1) on the right back. When the average tumor volume reached about 180 mm^3, grouping and administration were performed (marked as Day 0). The solvent group was given 5% DMSO, 30% PEG400 and 65% of 20% sulfobutyl-β-cyclodextrin solution, and the administration group was given the compound (Day 0-Day 10:1 mg/kg; Day 11-Day 28:0.1 mg/kg). The administration frequency was once a day, the administration cycle was 29 days, and the drug withdrawal observation period was set to 14 days. After grouping, the tumor diameter was measured twice a week with a vernier caliper. The formula for calculating the tumor volume was: V=0.5×a×b^2, where a and b represented the long and short diameters of the tumor, respectively.
# [3] = Pharmacokinetic test in rats; format: in vivo, SD rats; settings: rat, i.g. 10 mg/kg
# Experimental: • 1.1 Experimental animals: male SD rats, about 220 g, 6-8 weeks old, 6 rats/compound. Purchased from Chengdu Ddossy Experimental Animals Co., Ltd. • 1.2 Experimental design: on the day of the experiment, 6 SD rats were randomly grouped according to their body weights. The animals were fasted with water available for 12 to 14 h one day before the administration and were fed 4 h after the administration. [table] Before and after the administration, 0.15 mL of blood was taken from the orbit of the animals under isoflurane anesthesia and placed in an EDTAK2 centrifuge tube. The blood was centrifuged at 5000 rpm and 4° C. for 10 min to collect plasma. The blood collection time points for the intravenous administration group and intragastric administration group were: 0, 5 min, 15 min, 30 min, 1 h, 2 h, 4 h, 6 h, 8 h and 24 h. Before analysis and detection, all samples were stored at −80° C. The samples were analyzed quantitatively by LC-MS/MS.
# [4] = Stability test of crystal form (purity by HPLC); format: physicochemical
# Experimental: Samples were taken and tested at 92.5% RH, 40° C. and 60° C. respectively. The purity (represented by a percentage) was detected by HPLC.
# With regard to methods for preparing test solutions and conditions for detecting purity by HPLC, reference was made to Tables 13 and 14.
smiles,measurement,setting,value
"CCc1cc2ncc(CN3CCN(c4ccc(C(=O)NC5CC5)nc4)CC3)cc2[nH]c1=O [Compound I, N-cyclopropyl-5-(4-((7-ethyl-6-oxo-5,6-dihydro-1,5-naphthyridin-3-yl)methyl)piperazin-1-yl)pyridine carboxamide]",inhibition at 10 µM,"[1]; 10 μM, read-out: Max inh. % 10 μM",89.4%
same,IC50,[1],2 nM
same,tumor growth after the drug withdrawal,[2]; 14 days drug withdrawal observation,did not grow again
same,body weight of the animals,"[2]; Day 0-10 1 mg/kg, Day 11-28 0.1 mg/kg, once a day",no significant decrease
same,TGI,"[2]; after 28 days of administration, Day 0-10 1 mg/kg, Day 11-28 0.1 mg/kg, once a day",119%
same,F,[3],98.8%
"CCc1cc2ncc(CN3CCN(c4ccc(C(=O)NC5CC5)nc4)CC3)cc2[nH]c1=O [crystal form G, N-cyclopropyl-5-(4-((7-ethyl-6-oxo-5,6-dihydro-1,5-naphthyridin-3-yl)methyl)piperazin-1-yl)pyridine carboxamide]",Maximum individual impurity,[4]; 0 d,0.494%
same,RRT 0.31 impurity,[4]; 0 d,0.494%
same,RRT 0.36 impurity,[4]; 0 d,0.071%
same,RRT 0.49 impurity,[4]; 0 d,0.170%
same,RRT 0.72 impurity,[4]; 0 d,0.248%
same,RRT 1.00 (purity by HPLC),[4]; 0 d,98.425%
same,RRT 1.14 impurity,[4]; 0 d,0.065%
same,RRT 1.33 impurity,[4]; 0 d,0.079%
same,Total impurity,[4]; 0 d,1.575%
same,Maximum individual impurity,[4]; 40° C.-6 d,0.438%
same,RRT 0.31 impurity,[4]; 40° C.-6 d,0.438%
same,RRT 0.36 impurity,[4]; 40° C.-6 d,0.097%
same,RRT 0.49 impurity,[4]; 40° C.-6 d,0.195%
same,RRT 0.72 impurity,[4]; 40° C.-6 d,0.241%
same,RRT 1.00 (purity by HPLC),[4]; 40° C.-6 d,98.494%
same,RRT 1.14 impurity,[4]; 40° C.-6 d,0.071%
same,RRT 1.33 impurity,[4]; 40° C.-6 d,0.069%
same,Total impurity,[4]; 40° C.-6 d,1.506%
same,Maximum individual impurity,[4]; 40° C.-10 d,0.507%
same,RRT 0.31 impurity,[4]; 40° C.-10 d,0.507%
same,RRT 0.36 impurity,[4]; 40° C.-10 d,0.100%
same,RRT 0.49 impurity,[4]; 40° C.-10 d,0.194%
same,RRT 0.72 impurity,[4]; 40° C.-10 d,0.232%
same,RRT 1.00 (purity by HPLC),[4]; 40° C.-10 d,98.459%
same,RRT 1.14 impurity,[4]; 40° C.-10 d,0.069%
same,RRT 1.33 impurity,[4]; 40° C.-10 d,0.061%
same,Total impurity,[4]; 40° C.-10 d,1.541%
same,Maximum individual impurity,[4]; 40° C.-30 d,0.467%
same,RRT 0.31 impurity,[4]; 40° C.-30 d,0.467%
same,RRT 0.36 impurity,[4]; 40° C.-30 d,0.115%
same,RRT 0.49 impurity,[4]; 40° C.-30 d,0.144%
same,RRT 0.72 impurity,[4]; 40° C.-30 d,0.252%
same,RRT 1.00 (purity by HPLC),[4]; 40° C.-30 d,98.519%
same,RRT 1.14 impurity,[4]; 40° C.-30 d,0.077%
same,RRT 1.33 impurity,[4]; 40° C.-30 d,0.060%
same,Total impurity,[4]; 40° C.-30 d,1.481%
same,Maximum individual impurity,[4]; 60° C.-6 d,0.452%
same,RRT 0.31 impurity,[4]; 60° C.-6 d,0.452%
same,RRT 0.36 impurity,[4]; 60° C.-6 d,0.097%
same,RRT 0.49 impurity,[4]; 60° C.-6 d,0.193%
same,RRT 0.72 impurity,[4]; 60° C.-6 d,0.229%
same,RRT 1.00 (purity by HPLC),[4]; 60° C.-6 d,98.522%
same,RRT 1.14 impurity,[4]; 60° C.-6 d,0.070%
same,RRT 1.33 impurity,[4]; 60° C.-6 d,0.064%
same,Total impurity,[4]; 60° C.-6 d,1.478%
same,Maximum individual impurity,[4]; 60° C.-10 d,0.498%
same,RRT 0.31 impurity,[4]; 60° C.-10 d,0.498%
same,RRT 0.36 impurity,[4]; 60° C.-10 d,0.103%
same,RRT 0.49 impurity,[4]; 60° C.-10 d,0.206%
same,RRT 0.72 impurity,[4]; 60° C.-10 d,0.247%
same,RRT 1.00 (purity by HPLC),[4]; 60° C.-10 d,98.447%
same,RRT 1.14 impurity,[4]; 60° C.-10 d,0.068%
same,RRT 1.33 impurity,[4]; 60° C.-10 d,0.069%
same,Total impurity,[4]; 60° C.-10 d,1.553%
same,Maximum individual impurity,[4]; 60° C.-30 d,0.457%
same,RRT 0.31 impurity,[4]; 60° C.-30 d,0.457%
same,RRT 0.36 impurity,[4]; 60° C.-30 d,0.112%
same,RRT 0.49 impurity,[4]; 60° C.-30 d,0.145%
same,RRT 0.72 impurity,[4]; 60° C.-30 d,0.244%
same,RRT 1.00 (purity by HPLC),[4]; 60° C.-30 d,98.499%
same,RRT 1.14 impurity,[4]; 60° C.-30 d,0.084%
same,RRT 1.33 impurity,[4]; 60° C.-30 d,0.056%
same,Total impurity,[4]; 60° C.-30 d,1.501%
same,chemical stability,"[4]; 92.5% RH, 40° C. and 60° C., up to 30 d",good chemical stability
same,Maximum individual impurity,[4]; 92.5% RH-6 d,0.468%
same,RRT 0.31 impurity,[4]; 92.5% RH-6 d,0.468%
same,RRT 0.36 impurity,[4]; 92.5% RH-6 d,0.107%
same,RRT 0.49 impurity,[4]; 92.5% RH-6 d,0.191%
same,RRT 0.72 impurity,[4]; 92.5% RH-6 d,0.244%
same,RRT 1.00 (purity by HPLC),[4]; 92.5% RH-6 d,98.503%
same,RRT 1.14 impurity,[4]; 92.5% RH-6 d,0.068%
same,RRT 1.33 impurity,[4]; 92.5% RH-6 d,0.066%
same,Total impurity,[4]; 92.5% RH-6 d,1.497%
same,Maximum individual impurity,[4]; 92.5% RH-10 d,0.518%
same,RRT 0.31 impurity,[4]; 92.5% RH-10 d,0.518%
same,RRT 0.36 impurity,[4]; 92.5% RH-10 d,0.110%
same,RRT 0.49 impurity,[4]; 92.5% RH-10 d,0.206%
same,RRT 0.72 impurity,[4]; 92.5% RH-10 d,0.246%
same,RRT 1.00 (purity by HPLC),[4]; 92.5% RH-10 d,98.358%
same,RRT 1.14 impurity,[4]; 92.5% RH-10 d,0.073%
same,RRT 1.33 impurity,[4]; 92.5% RH-10 d,0.066%
same,Total impurity,[4]; 92.5% RH-10 d,1.642%
same,Maximum individual impurity,[4]; 92.5% RH-30 d,0.475%
same,RRT 0.31 impurity,[4]; 92.5% RH-30 d,0.475%
same,RRT 0.36 impurity,[4]; 92.5% RH-30 d,0.099%
same,RRT 0.49 impurity,[4]; 92.5% RH-30 d,0.137%
same,RRT 0.72 impurity,[4]; 92.5% RH-30 d,0.243%
same,RRT 1.00 (purity by HPLC),[4]; 92.5% RH-30 d,98.499%
same,RRT 1.14 impurity,[4]; 92.5% RH-30 d,0.075%
same,RRT 1.33 impurity,[4]; 92.5% RH-30 d,0.056%
same,Total impurity,[4]; 92.5% RH-30 d,1.501%
